Results published in PubChem BioAssay (NCI).
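Assay format: 96-well plates, 48-hour exposure. TGI marks complete inhibition of growth.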

How the values were obtained:
Assay in all cases: inhibition of tumour cell growth, NCI panel, 48 h
786-0 renal = system: 786-0 renal
A549 NSCLC = system: A549 NSCLC
ACHN renal = system: ACHN renal
BT-549 breast = system: BT-549 breast
CAKI-1 renal = system: CAKI-1 renal
CCRF-CEM leukemia = system: CCRF-CEM leukemia
COLO 205 colon = system: COLO 205 colon
DU-145 prostate = system: DU-145 prostate
EKVX NSCLC = system: EKVX NSCLC
HCC-2998 colon = system: HCC-2998 colon
HCT-116 colon = system: HCT-116 colon
HCT-15 colon = system: HCT-15 colon
HL-60(TB) leukemia = system: HL-60(TB) leukemia
HOP-62 NSCLC = system: HOP-62 NSCLC
HOP-92 NSCLC = system: HOP-92 NSCLC
HS 578T breast = system: HS 578T breast
HT29 colon = system: HT29 colon
IGROV1 ovarian = system: IGROV1 ovarian
K-562 leukemia = system: K-562 leukemia
KM12 colon = system: KM12 colon
LOX IMVI melanoma = system: LOX IMVI melanoma
M14 melanoma = system: M14 melanoma
MALME-3M melanoma = system: MALME-3M melanoma
MCF7 breast = system: MCF7 breast
MDA-MB-231 breast = system: MDA-MB-231 breast
MDA-MB-435 = system: MDA-MB-435
MDA-N = system: MDA-N
MOLT-4 leukemia = system: MOLT-4 leukemia
NCI-H226 lung = system: NCI-H226 lung
NCI-H23 lung = system: NCI-H23 lung
NCI-H460 lung = system: NCI-H460 lung
NCI-H522 lung = system: NCI-H522 lung
NCI/ADR-RES ovarian = system: NCI/ADR-RES ovarian
OVCAR-3 ovarian = system: OVCAR-3 ovarian
OVCAR-4 ovarian = system: OVCAR-4 ovarian
OVCAR-5 ovarian = system: OVCAR-5 ovarian
OVCAR-8 ovarian = system: OVCAR-8 ovarian
PC-3 prostate = system: PC-3 prostate
RPMI-8226 leukemia = system: RPMI-8226 leukemia
RXF 393 renal = system: RXF 393 renal
SF-268 CNS = system: SF-268 CNS
SF-295 CNS = system: SF-295 CNS
SF-539 CNS = system: SF-539 CNS
SK-MEL-2 melanoma = system: SK-MEL-2 melanoma
SK-MEL-28 melanoma = system: SK-MEL-28 melanoma
SK-MEL-5 melanoma = system: SK-MEL-5 melanoma
SK-OV-3 ovarian = system: SK-OV-3 ovarian
SN12C renal = system: SN12C renal
SNB-19 CNS = system: SNB-19 CNS
SNB-75 CNS = system: SNB-75 CNS
SW-620 colon = system: SW-620 colon
T-47D breast = system: T-47D breast
TK-10 renal = system: TK-10 renal
U251 CNS = system: U251 CNS
UACC-257 melanoma = system: UACC-257 melanoma
UACC-62 melanoma = system: UACC-62 melanoma
A498 renal = system: A498 renal
SR leukemia = system: SR leukemia
UO-31 renal = system: UO-31 renal

Structure (SMILES): COc1ccc(C2SC(N)=Nc3c2c(C)nn3C(=O)c2ccc(Cl)cc2)cc1 (stereo not given)
- TGI (786-0 renal): > 10 µM
- TGI (A549 NSCLC): > 10 µM
- TGI (ACHN renal): > 10 µM
- TGI (BT-549 breast): > 10 µM
- TGI (CAKI-1 renal): > 10 µM
- TGI (CCRF-CEM leukemia): > 10 µM
- TGI (COLO 205 colon): > 10 µM
- TGI (DU-145 prostate): > 10 µM
- TGI (EKVX NSCLC): > 10 µM
- TGI (HCC-2998 colon): > 10 µM
- TGI (HCT-116 colon): > 10 µM
- TGI (HCT-15 colon): > 10 µM
- TGI (HL-60(TB) leukemia): > 10 µM
- TGI (HOP-62 NSCLC): > 10 µM
- TGI (HOP-92 NSCLC): > 10 µM
- TGI (HS 578T breast): > 10 µM
- TGI (HT29 colon): > 10 µM
- TGI (IGROV1 ovarian): > 10 µM
- TGI (K-562 leukemia): > 10 µM
- TGI (KM12 colon): > 10 µM
- TGI (LOX IMVI melanoma): > 10 µM
- TGI (M14 melanoma): > 10 µM
- TGI (MALME-3M melanoma): > 10 µM
- TGI (MCF7 breast): > 10 µM
- TGI (MDA-MB-231 breast): > 10 µM
- TGI (MDA-MB-435): > 10 µM
- TGI (MDA-N): > 10 µM
- TGI (MOLT-4 leukemia): > 10 µM
- TGI (NCI-H226 lung): > 10 µM
- TGI (NCI-H23 lung): > 10 µM
- TGI (NCI-H460 lung): > 10 µM
- TGI (NCI-H522 lung): > 10 µM
- TGI (NCI/ADR-RES ovarian): > 10 µM
- TGI (OVCAR-3 ovarian): > 10 µM
- TGI (OVCAR-4 ovarian): > 10 µM
- TGI (OVCAR-5 ovarian): > 10 µM
- TGI (OVCAR-8 ovarian): > 10 µM
- TGI (PC-3 prostate): > 10 µM
- TGI (RPMI-8226 leukemia): > 10 µM
- TGI (RXF 393 renal): > 10 µM
- TGI (SF-268 CNS): > 10 µM
- TGI (SF-295 CNS): > 10 µM
- TGI (SF-539 CNS): > 10 µM
- TGI (SK-MEL-2 melanoma): > 10 µM
- TGI (SK-MEL-28 melanoma): > 10 µM
- TGI (SK-MEL-5 melanoma): > 10 µM
- TGI (SK-OV-3 ovarian): > 10 µM
- TGI (SN12C renal): > 10 µM
- TGI (SNB-19 CNS): > 10 µM
- TGI (SNB-75 CNS): > 10 µM
- TGI (SW-620 colon): > 10 µM
- TGI (T-47D breast): > 10 µM
- TGI (TK-10 renal): > 10 µM
- TGI (U251 CNS): > 10 µM
- TGI (UACC-257 melanoma): > 10 µM
- TGI (UACC-62 melanoma): > 10 µM

Structure (SMILES): O=C(N=Nc1c(O)[nH]c2c(Cl)cc(Cl)cc12)c1ccncc1
- TGI (786-0 renal): 36.4 µM
- TGI (A498 renal): > 100 µM
- TGI (A549 NSCLC): > 100 µM
- TGI (ACHN renal): > 100 µM
- TGI (BT-549 breast): > 100 µM
- TGI (CAKI-1 renal): 39 µM
- TGI (CCRF-CEM leukemia): > 100 µM
- TGI (COLO 205 colon): > 100 µM
- TGI (EKVX NSCLC): > 100 µM
- TGI (HCC-2998 colon): > 100 µM
- TGI (HCT-116 colon): 39.2 µM
- TGI (HCT-15 colon): > 100 µM
- TGI (HL-60(TB) leukemia): > 100 µM
- TGI (HOP-62 NSCLC): 88.3 µM
- TGI (HOP-92 NSCLC): > 100 µM
- TGI (HS 578T breast): > 100 µM
- TGI (HT29 colon): 75.7 µM
- TGI (IGROV1 ovarian): > 100 µM
- TGI (K-562 leukemia): 99.5 µM
- TGI (KM12 colon): > 100 µM
- TGI (LOX IMVI melanoma): 42.3 µM
- TGI (M14 melanoma): > 100 µM
- TGI (MALME-3M melanoma): 32.7 µM
- TGI (MCF7 breast): > 100 µM
- TGI (MDA-MB-231 breast): 39.4 µM
- TGI (MDA-MB-435): 33.7 µM
- TGI (MDA-N): 29.1 µM
- TGI (MOLT-4 leukemia): > 100 µM
- TGI (NCI-H226 lung): > 100 µM
- TGI (NCI-H23 lung): 56.5 µM
- TGI (NCI-H460 lung): > 100 µM
- TGI (NCI/ADR-RES ovarian): 69.4 µM
- TGI (OVCAR-3 ovarian): 37.5 µM
- TGI (OVCAR-4 ovarian): 57.2 µM
- TGI (OVCAR-5 ovarian): > 100 µM
- TGI (OVCAR-8 ovarian): 67.8 µM
- TGI (PC-3 prostate): 40.2 µM
- TGI (RXF 393 renal): 61.4 µM
- TGI (SF-295 CNS): > 100 µM
- TGI (SF-539 CNS): 51.1 µM
- TGI (SK-MEL-2 melanoma): 40.2 µM
- TGI (SK-MEL-28 melanoma): 50.5 µM
- TGI (SK-MEL-5 melanoma): 33.4 µM
- TGI (SK-OV-3 ovarian): 69.8 µM
- TGI (SN12C renal): 64.4 µM
- TGI (SNB-19 CNS): > 100 µM
- TGI (SNB-75 CNS): 95.2 µM
- TGI (SR leukemia): 69.2 µM
- TGI (SW-620 colon): > 100 µM
- TGI (TK-10 renal): > 100 µM
- TGI (U251 CNS): 41.6 µM
- TGI (UACC-257 melanoma): 48.9 µM
- TGI (UACC-62 melanoma): 33 µM
- TGI (UO-31 renal): > 100 µM
